Measurements published in PubChem BioAssay (NCI).
Values joined by “and” are separate entries in the source; they are usually repeats but may differ in a detail not shown here. Identical values can stand only once.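 Cells were grown in 96-well plates and exposed to each compound for 48 hours at five concentrations; endpoints were interpolated linearly between bracketing concentrations, or set to the highest concentration if not reached. At the GI50, growth is halved. Definition used: TGI = concentration required for complete inhibition of growth.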

How the values were obtained:
Assay in all cases: inhibition of tumour cell growth, NCI panel, 48 h
[1] = system: NCI/ADR-RES ovarian
[2] = system: A498 renal
[3] = system: SF-539 CNS
[4] = system: ACHN renal
[5] = system: SF-295 CNS
[6] = system: MDA-MB-231 breast
[7] = system: SK-MEL-2 melanoma
[8] = system: NCI-H226 lung
[9] = system: UACC-62 melanoma
[10] = system: HL-60(TB) leukemia

O=C(Nc1ccc(-n2cc(-c3ccncc3)c(-c3ccc(Cl)c(O)c3)n2)cc1)Nc1ccc(Cl)c(C(F)(F)F)c1
GI50 [1]: 1.88 µM
TGI [1]: 4.83 µM
GI50 [2]: 1.63 µM
TGI [2]: 9.29 µM
GI50 [3]: 1.31 µM
TGI [3]: 3.48 µM
GI50 [4]: 1.78 µM
TGI [4]: 4.94 µM
GI50 [5]: 1.26 µM
TGI [5]: 2.86 µM
GI50 [6]: 1.66 µM
TGI [6]: 3.31 µM
GI50 [7]: 1.7 µM
TGI [7]: 3.27 µM
GI50 [8]: 2.76 µM
TGI [8]: 10.8 µM
GI50 [9]: 1.7 µM
TGI [9]: 3.44 µM
GI50 [10]: 2.42 µM
TGI [10]: 7.46 µM

Oc1cn(-c2ccc(Cl)cc2)nc1-c1n[nH]c(=S)n1C1CCCCC1
TGI [1]: 1.05 µM
GI50 [2]: 0.365 µM
TGI [2]: 9.44 µM
GI50 [3]: 0.312 µM
TGI [3]: 1.11 µM
GI50 [5]: < 0.0447 µM
TGI [5]: 0.479 µM
GI50 [6]: 2.22 µM
TGI [6]: > 90.7 µM
GI50 [7]: > 52.3 µM
TGI [7]: > 100 µM
GI50 [8]: 59.8 µM
TGI [8]: > 100 µM
TGI [9]: > 100 µM

O=C(Nc1ccc(CO)cc1)c1coc2ccccc2c1=O
GI50 [1]: > 100 µM
TGI [1]: > 100 µM
GI50 [3]: > 100 µM
TGI [3]: > 100 µM
GI50 [4]: > 100 µM
TGI [4]: > 100 µM
GI50 [5]: 65.6 µM
TGI [5]: > 100 µM
GI50 [6]: > 100 µM
TGI [6]: > 100 µM
GI50 [8]: > 100 µM
TGI [8]: > 100 µM
GI50 [9]: > 100 µM
TGI [9]: > 100 µM
GI50 [10]: > 100 µM
TGI [10]: > 100 µM

O=C(Nc1ccc(-c2ccccc2)cc1)C1CCN(S(=O)(=O)c2ccccc2Cl)CC1
GI50 [1]: 37.1 µM
TGI [1]: > 100 µM
GI50 [3]: 12 µM
TGI [3]: 37.3 µM
GI50 [4]: 21.9 µM
TGI [4]: 57 µM
GI50 [5]: 24.4 µM
TGI [5]: > 100 µM
GI50 [6]: 18.2 µM
TGI [6]: 47.3 µM
GI50 [7]: 49.7 µM
TGI [7]: > 100 µM
GI50 [8]: 30.2 µM
TGI [8]: > 100 µM
GI50 [9]: 39.8 µM
TGI [9]: > 100 µM
GI50 [10]: > 100 µM
TGI [10]: > 100 µM

N=C(N)SCc1cccc(-c2nc3ccccc3c(=O)o2)c1
TGI [1]: > 100 µM
TGI [2]: > 100 µM
TGI [3]: > 100 µM
TGI [4]: > 100 µM
TGI [5]: > 100 µM
TGI [6]: > 100 µM
TGI [7]: > 100 µM
TGI [8]: > 100 µM
TGI [9]: > 100 µM

CN(CCCNC(=O)Cc1ccc2ccc3cccc4ccc1c2c34)CCCNc1cc(-c2ccc3ccccc3c2)nc2ccccc12
GI50 [1]: 1.49 µM
TGI [1]: 2.96 µM
GI50 [2]: 1.66 µM
TGI [2]: 3.19 µM
GI50 [3]: 1.54 µM
TGI [3]: 2.98 µM
GI50 [4]: 1.42 µM
TGI [4]: 2.87 µM
GI50 [6]: 1.54 µM
TGI [6]: 3.04 µM
GI50 [7]: 1.82 µM
TGI [7]: 3.55 µM
GI50 [8]: 1.83 µM
TGI [8]: 3.83 µM
GI50 [9]: 1.88 µM
TGI [9]: 3.46 µM
GI50 [10]: 1.1 µM
TGI [10]: 2.43 µM

COc1ccc(Nc2c3ccccc3nc3occ(Cl)c23)cc1
GI50 [1]: < 0.01 µM
TGI [1]: 2.09 µM
GI50 [2]: < 0.01 µM
TGI [2]: 0.121 µM
GI50 [3]: < 0.0167 µM
TGI [3]: 1.39 µM
GI50 [4]: 1.44 µM
TGI [4]: > 100 µM
GI50 [5]: < 0.01 µM
TGI [5]: 0.0558 µM
GI50 [6]: < 0.01 µM
TGI [6]: 0.0648 µM
GI50 [8]: 25.1 µM
TGI [8]: > 100 µM
GI50 [9]: 0.0104 µM
TGI [9]: 42.4 µM
GI50 [10]: < 0.01 µM
TGI [10]: 0.547 µM

CC(C)OC(=O)NNc1cc(Cl)ccc1Cl
TGI [1]: > 100 µM
TGI [2]: 96.6 µM
TGI [3]: > 100 µM
TGI [4]: > 100 µM
TGI [5]: > 100 µM
TGI [6]: > 100 µM
TGI [7]: > 100 µM
TGI [9]: > 100 µM
TGI [10]: > 100 µM

CC(C)N=c1cc2n(-c3ccc(Cl)cc3)c3ccccc3nc-2cc1Nc1ccc(Cl)cc1
GI50 [1]: 2.3 µM
TGI [1]: > 100 µM
GI50 [3]: > 50 µM
TGI [3]: > 50 µM
GI50 [4]: 1.18 µM and 2.18 µM
TGI [4]: > 100 µM
GI50 [5]: 1.36 µM
TGI [5]: > 50 µM
GI50 [6]: 0.618 µM and 1.07 µM
TGI [6]: > 50 µM
GI50 [8]: 1.43 µM
TGI [8]: > 50 µM
GI50 [9]: 1.96 µM
TGI [9]: > 50 µM
GI50 [10]: 1.04 µM
TGI [10]: 2.46 µM

COc1cc(C2=C(c3cn(C)c4ccccc34)COC2=O)cc(OC)c1OC
GI50 [1]: 0.0464 µM
TGI [1]: 2.07 µM
GI50 [2]: 0.0171 µM
TGI [2]: 0.109 µM
GI50 [3]: 0.106 µM
TGI [3]: 0.932 µM
GI50 [6]: 0.34 µM
TGI [6]: > 100 µM
GI50 [7]: 0.0562 µM
TGI [7]: 18.5 µM
GI50 [8]: 1.1 µM
TGI [8]: 7.3 µM
GI50 [10]: 0.0425 µM
TGI [10]: 1.46 µM

COc1cccc(/C(COc2ccc3c(c2)oc(=O)c2cc(OC)ccc23)=N/O)c1
GI50 [1]: 3.63 µM
TGI [1]: > 100 µM
GI50 [2]: 3.02 µM
TGI [2]: 25.8 µM
GI50 [3]: 6.55 µM
TGI [3]: 81.5 µM
GI50 [4]: 3.64 µM
TGI [4]: > 100 µM
GI50 [5]: 8.22 µM
TGI [5]: > 100 µM
GI50 [6]: 4.37 µM
TGI [6]: 71 µM
GI50 [7]: 6.62 µM
TGI [7]: > 100 µM
GI50 [8]: 51.9 µM
TGI [8]: > 100 µM
GI50 [9]: 4.25 µM
TGI [9]: > 100 µM

C[C@]12CC[C@@H]3c4ccc(O)cc4CC[C@H]3[C@@H]1CC[C@@H]2NS(=O)(=O)c1cccc(F)c1
GI50 [1]: 2.88 µM
TGI [1]: 17 µM
GI50 [2]: 2.07 µM
TGI [2]: 6.68 µM
GI50 [3]: 3.91 µM
TGI [3]: 14.1 µM
GI50 [4]: 2.71 µM
TGI [4]: 8.66 µM
GI50 [5]: 3.29 µM
TGI [5]: 11.9 µM
GI50 [6]: 3.64 µM
TGI [6]: 13.6 µM
GI50 [7]: 2.8 µM
TGI [7]: 8.14 µM
GI50 [8]: 3.72 µM
TGI [8]: 16.7 µM
GI50 [9]: 2.92 µM
TGI [9]: 11.3 µM

CCOC(=O)c1c[nH]c2oc(/C=N/N3CC(CN4CCOCC4)OC3=O)cc2c1=O (stereo unspecified)
TGI [1]: > 100 µM
TGI [3]: > 100 µM
TGI [4]: > 100 µM
TGI [5]: > 100 µM
TGI [6]: > 100 µM
TGI [7]: > 100 µM
TGI [8]: > 100 µM
TGI [9]: > 100 µM
TGI [10]: > 100 µM

Cc1ccc(S(=O)(=O)NCCNc2nccc(-c3c(-c4ccc(F)cc4)nc4sccn34)n2)cc1
GI50 [1]: 4.83 µM
TGI [1]: > 100 µM
GI50 [2]: 2.33 µM
TGI [2]: 14.4 µM
GI50 [3]: 12.3 µM
TGI [3]: 31 µM
GI50 [4]: 2.3 µM
TGI [4]: > 100 µM
GI50 [5]: 12.6 µM
TGI [5]: 77.1 µM
GI50 [6]: 11 µM
TGI [6]: > 100 µM
GI50 [7]: 7.55 µM
TGI [7]: 38.2 µM
GI50 [8]: 5.14 µM
TGI [8]: 97.3 µM
GI50 [9]: 3.95 µM
TGI [9]: > 100 µM

COc1ccc2ncn(-c3cc(O[C@H](C)c4ccccc4Cl)c(C(N)=O)s3)c2c1
GI50 [1]: 0.0107 µM
TGI [1]: 2.88 µM
GI50 [2]: 0.0441 µM
TGI [2]: 0.57 µM
GI50 [3]: 0.0374 µM
TGI [3]: 5.54 µM
GI50 [4]: 1.13 µM
TGI [4]: > 25 µM
GI50 [5]: 0.0189 µM
TGI [5]: 7.05 µM
GI50 [6]: 0.0454 µM
TGI [6]: > 17.3 µM
GI50 [8]: 0.6 µM
TGI [8]: 12.7 µM
GI50 [9]: 0.0213 µM
TGI [9]: 3.99 µM
GI50 [10]: 0.00849 µM
TGI [10]: 2.81 µM

COc1ccc2c(c1)[C@@]13CCCC[C@H]1[C@@H](C2)N(C)CC3=O
TGI [1]: 84.4 µM
TGI [4]: 30.4 µM
TGI [5]: > 100 µM
TGI [6]: 36.4 µM
TGI [7]: 53.9 µM
TGI [8]: 57.9 µM
TGI [9]: 32.7 µM
TGI [10]: > 100 µM
